The subject of series [1] is Salmonella enterica subsp. enterica serovar Abony. In words: Antibacterial activity against Salmonella enterica subsp. enterica serovar Abony assessed as diameter of inhibition zone at 1 mg/ml incubated for 24 hrs by agar well diffusion assay. It counts as functional. As to conditions: for zone of inhibition at 1000 µg/mL: read-out: DIZ.
Another series has as its system Shigella boydii. The experiment in a line: Antibacterial activity against Shigella boydii assessed as diameter of inhibition zone at 1 mg/ml incubated for 24 hrs by agar well diffusion assay. It counts as functional. As to conditions: for zone of inhibition at 1000 µg/mL: read-out: DIZ. Background: Agar diffusion results depend on both activity and mobility in agar.

A further series deals with Bacillus cereus. In words: Antibacterial activity against Bacillus cereus assessed as diameter of inhibition zone at 1 mg/ml incubated for 24 hrs by agar well diffusion assay. In kind it is functional. Conditions: for zone of inhibition at 1000 µg/mL: read-out: DIZ.
The subject of series [2] is Salmonella typhi. The experiment in a line: Antibacterial activity against Salmonella typhi assessed as diameter of inhibition zone at 1 mg/ml incubated for 24 hrs by agar well diffusion assay. It counts as functional, Salmonella enterica subsp. enterica serovar Typhi. Conditions: Salmonella enterica, read-out: DIZ.
Series [3] relates to Klebsiella aerogenes. The experiment in a line: Antibacterial activity against Enterobacter aerogenes ATCC 13048 by CLSI method. In kind it is functional.
The test system of series [4] is Staphylococcus aureus. In words: Antibacterial activity against Staphylococcus aureus assessed as diameter of inhibition zone at 1 mg/ml incubated for 24 hrs by agar well diffusion assay. In kind it is functional. As to conditions: for zone of inhibition at 1000 µg/mL: read-out: DIZ.
Series [5] relates to Klebsiella aerogenes. In words: Antibacterial activity against Enterobacter aerogenes assessed as diameter of inhibition zone at 1 mg/ml incubated for 24 hrs by agar well diffusion assay. It counts as functional. Conditions: read-out: DIZ.
In series [6] the test system is Salmonella typhi. In words: Antibacterial activity against Salmonella typhi ATCC 9207 by CLSI method. It counts as functional, Salmonella enterica subsp. enterica serovar Typhi. As to conditions: Salmonella enterica.
The subject of the next series is Pseudomonas aeruginosa. The experiment in a line: Antibacterial activity against Pseudomonas aeruginosa assessed as diameter of inhibition zone at 1 mg/ml incubated for 24 hrs by agar well diffusion assay. It counts as functional. As to conditions: for zone of inhibition at 1000 µg/mL: read-out: DIZ.
The subject of the next series is Escherichia coli. The experiment in a line: Antibacterial activity against Escherichia coli assessed as diameter of inhibition zone at 1 mg/ml incubated for 24 hrs by agar well diffusion assay. In kind it is functional. As to conditions: for zone of inhibition at 1000 µg/mL: read-out: DIZ.
The test system of a further series is Bacillus subtilis. The experiment in a line: Antibacterial activity against Bacillus subtilis assessed as diameter of inhibition zone at 1 mg/ml incubated for 24 hrs by agar well diffusion assay. It counts as functional. As to conditions: for zone of inhibition at 1000 µg/mL: read-out: DIZ.
The test system of series [7] is Staphylococcus aureus. In words: Antibacterial activity against Staphylococcus aureus ATCC 6538 by CLSI method. In kind it is functional.
Another series concerns Saccharomyces cerevisiae. The experiment in a line: Antifungal activity against Saccharomyces cerevisiae assessed as diameter of inhibition zone at 1 mg/ml incubated for 24 hrs by agar well diffusion assay. It counts as functional. As to conditions: read-out: DIZ.
Series [8] has as its system Mycobacterium tuberculosis. In words: Antimycobacterial activity against Mycobacterium tuberculosis H37Rv assessed as reduction in microbial growth incubated for 7 days by alamar blue assay. It counts as functional. Conditions: 168 h, time 7 day. (Alamar Blue is a resazurin reagent that responds to reducing activity.)
A short description of series [9]: Cytotoxicity against mouse RAW264.7 cells assessed as reduction in cell viability at 25 ug/ml incubated for 48 hrs by MTT assay. It counts as cell-based. As to conditions: at 25 µg/mL, read-out: INH. (Tetrazolium assays rely on reduction of a dye to a coloured formazan, in cell work by metabolically active cells.)
The next series deals with Aspergillus niger. The experiment in a line: Antifungal activity against Aspergillus niger assessed as diameter of inhibition zone at 1 mg/ml incubated for 24 hrs by agar well diffusion assay. Conditions: for zone of inhibition at 1000 µg/mL: read-out: DIZ. In kind it is functional.

From ChEMBL document CHEMBL4673231, “Novel isoniazid embedded triazole derivatives: Synthesis, antitubercular and antimicrobial activity evaluation” (Bioorg Med Chem Lett, 2020) come the findings set out here.

≈ marks a conversion by molar mass, not a printed value. Calls of active or inactive are those of the source. The rule behind the calls is not given here.

The MIC is the lowest concentration that inhibits growth of the organism.

On to `CN(C)[C@@H]1C(O)=C(C(N)=O)C(=O)[C@@]2(O)C(O)=C3C(=O)c4c(O)cccc4[C@@](C)(O)[C@H]3C[C@@H]12` [TETRACYCLINE], for which the zone of inhibition at 1000 µg/mL in [1] turned out to be 27 mm; in the series on Shigella boydii, 29 mm; in the series on Bacillus cereus it was 32 mm; in the series with Salmonella typhi [2], 28 mm; in the series on Staphylococcus aureus [4], 22 mm; in the series on Klebsiella aerogenes [5] it was 24 mm. Further, the zone of inhibition at 1000 µg/mL turned out to be 28 mm in the series with Pseudomonas aeruginosa, 29 mm in the series on Escherichia coli and 18 mm with Bacillus subtilis. For the same compound, the results for the MIC against Klebsiella aerogenes [3], with Salmonella typhi [6] and in the series on Staphylococcus aureus [7] were 15 µg/mL (≈ 33.8 µM), 20 µg/mL (≈ 45 µM) and 20 µg/mL (≈ 45 µM), respectively.

For the compound `Cc1ccccc1-n1cc(COc2ccc([N+](=O)[O-])cc2/C=N/NC(=O)c2ccncc2)nn1`, the zone of inhibition at 1000 µg/mL is 12 mm in series [1]; 12 mm in the series with Saccharomyces cerevisiae; 14 mm in the series on Shigella boydii; 12 mm with Bacillus cereus; 11 mm with Salmonella typhi [2]; 13 mm in the series on Staphylococcus aureus [4]. The zone of inhibition at 1000 µg/mL in the series with Klebsiella aerogenes [5] came to 10 mm; in the series on Pseudomonas aeruginosa, 10 mm; with Bacillus subtilis, 11 mm; with Aspergillus niger it was 9 mm. For the same compound, the minimal inhibitory concentration (MIC) with Klebsiella aerogenes [3] was 190 µg/mL (≈ 415 µM); in the series on Salmonella typhi [6], 270 µg/mL (≈ 590 µM); in series [8], 1.56 µg/mL; in the series with Staphylococcus aureus [7], 310 µg/mL (≈ 678 µM). In the series with Escherichia coli, the “diameter of the inhibition zone (DIZ)” value was “inactive”. In series [9], the cytotoxicity at 48 h, 25 ug/ml worked out at 24.2%.

With `O=C(N/N=C/c1cc([N+](=O)[O-])ccc1OCc1cn(-c2ccccc2Cl)nn1)c1ccncc1`, the “diameter of the inhibition zone (DIZ)” value (in series [1]; in the series on Pseudomonas aeruginosa) was “inactive” throughout. For the same compound, the zone of inhibition at 1000 µg/mL in the series with Saccharomyces cerevisiae was 12 mm; with Shigella boydii it was 7 mm; in the series on Bacillus cereus, 11 mm; in the series with Salmonella typhi [2], 10 mm; with Staphylococcus aureus [4], 12 mm; in the series on Klebsiella aerogenes [5] it was 10 mm. Moreover, the zone of inhibition at 1000 µg/mL with Escherichia coli was determined as 12 mm; in the series on Bacillus subtilis it was 9 mm; in the series with Aspergillus niger it was 10 mm. The minimum inhibitory concentration (MIC) against Klebsiella aerogenes [3] stood at 130 µg/mL (≈ 272 µM); against Salmonella typhi [6], 170 µg/mL (≈ 356 µM); in [8] it was 1.56 µg/mL; against Staphylococcus aureus [7] it was 200 µg/mL (≈ 419 µM). Further, in series [9], the cytotoxicity at 48 h, 25 ug/ml was found to be 24.2%.

`O=C(N/N=C/c1cc([N+](=O)[O-])ccc1OCc1cn(-c2cccc(Cl)c2)nn1)c1ccncc1`: the zone of inhibition at 1000 µg/mL in [1] is 10 mm; in the series with Saccharomyces cerevisiae, 10 mm; with Shigella boydii, 12 mm; in the series with Bacillus cereus it was 10 mm; in the series on Staphylococcus aureus [4], 15 mm; in the series with Klebsiella aerogenes [5], 13 mm. Further, the zone of inhibition at 1000 µg/mL in the series on Pseudomonas aeruginosa was 8 mm; in the series with Escherichia coli it was 10 mm; with Bacillus subtilis, 11 mm; with Aspergillus niger, 9 mm. For the same compound, the MIC in the series on Klebsiella aerogenes [3] amounted to 260 µg/mL (≈ 544 µM); in the series on Salmonella typhi [6], 140 µg/mL (≈ 293 µM); in series [8], 12.5 µg/mL; against Staphylococcus aureus [7], 220 µg/mL (≈ 460 µM). In series [9], the cytotoxicity at 48 h, 25 ug/ml worked out at 20.1%.

Take `COc1ccccc1-n1cc(COc2ccc([N+](=O)[O-])cc2/C=N/NC(=O)c2ccncc2)nn1`: the zone of inhibition at 1000 µg/mL amounted to 8 mm in series [1]; 10 mm in the series with Saccharomyces cerevisiae; 13 mm in the series with Shigella boydii; 12 mm in the series with Bacillus cereus; 11 mm with Salmonella typhi [2]; 12 mm in the series on Staphylococcus aureus [4]. The zone of inhibition at 1000 µg/mL in the series with Klebsiella aerogenes [5] came to 12 mm; with Pseudomonas aeruginosa, 8 mm; with Escherichia coli, 11 mm; with Bacillus subtilis, 12 mm; in the series with Aspergillus niger, 10 mm. Further, the minimal inhibitory concentration (MIC) against Klebsiella aerogenes [3] is 370 µg/mL (≈ 781 µM); in the series on Salmonella typhi [6], 230 µg/mL (≈ 486 µM); in series [8] it was over 25 µg/mL; with Staphylococcus aureus [7], 450 µg/mL (≈ 950 µM).

As for `COc1ccc(-n2cc(COc3ccc([N+](=O)[O-])cc3/C=N/NC(=O)c3ccncc3)nn2)cc1`, the zone of inhibition at 1000 µg/mL in [1] worked out at 13 mm; in the series with Shigella boydii, 14 mm; in the series on Bacillus cereus, 12 mm; in the series on Salmonella typhi [2], 12 mm; in the series on Staphylococcus aureus [4], 10 mm; in the series on Klebsiella aerogenes [5] it was 14 mm. The zone of inhibition at 1000 µg/mL worked out at 12 mm with Pseudomonas aeruginosa, 12 mm in the series on Escherichia coli, 6 mm with Bacillus subtilis and 11 mm in the series with Aspergillus niger. Besides, the MIC was 150 µg/mL (≈ 317 µM) with Klebsiella aerogenes [3], 340 µg/mL (≈ 718 µM) with Salmonella typhi [6], over 25 µg/mL in series [8] and 180 µg/mL (≈ 380 µM) in the series on Staphylococcus aureus [7].

`O=C(N/N=C/c1cc([N+](=O)[O-])ccc1OCc1cn(-c2ccc(Br)cc2)nn1)c1ccncc1`: the “diameter of the inhibition zone (DIZ)” value (in series [1]; in the series on Shigella boydii; with Bacillus cereus; with Staphylococcus aureus [4]; with Pseudomonas aeruginosa; in the series with Escherichia coli) was “inactive” each time. Moreover, the “diameter of the inhibition zone (DIZ)” value in the series with Bacillus subtilis and in the series with Aspergillus niger was “inactive” each time. Further, the values for the zone of inhibition at 1000 µg/mL in the series on Saccharomyces cerevisiae, with Salmonella typhi [2] and in the series with Klebsiella aerogenes [5] were 12 mm, 10 mm and 12 mm, respectively. For the same compound, the minimal inhibitory concentration (MIC) in series [8] turned out to be 12.5 µg/mL. The cytotoxicity at 48 h, 25 ug/ml in series [9] stood at 19%.
